Results published in patent US11873298B2, “Compounds and uses thereof” (JANSSEN PHARMACEUTICA NV, priority 2017, dated 2024).
Several values for one entry are separate records, joined by “and”; a condition that tells them apart may be missing. Equal values may be shown once.

What was measured:
Assay type in all cases: cell-based
Ole1 = target: T1, Ole1 (Saccharomyces cerevisiae, UniProt P21147); assay: Growth inhibition of yeast strain expressing Ole1 as sole desaturase; conditions: yeast strain expressing Ole1 as sole desaturase
T1 construct: expressed in transfected cells; host or cells: S. cerevisiae ole1Δ strain (W303 pdr1Δ pdr3Δ background), plasmid pRS316 with TDH3 promoter and CYC1 terminator
T1 sequence (P21147 1-510): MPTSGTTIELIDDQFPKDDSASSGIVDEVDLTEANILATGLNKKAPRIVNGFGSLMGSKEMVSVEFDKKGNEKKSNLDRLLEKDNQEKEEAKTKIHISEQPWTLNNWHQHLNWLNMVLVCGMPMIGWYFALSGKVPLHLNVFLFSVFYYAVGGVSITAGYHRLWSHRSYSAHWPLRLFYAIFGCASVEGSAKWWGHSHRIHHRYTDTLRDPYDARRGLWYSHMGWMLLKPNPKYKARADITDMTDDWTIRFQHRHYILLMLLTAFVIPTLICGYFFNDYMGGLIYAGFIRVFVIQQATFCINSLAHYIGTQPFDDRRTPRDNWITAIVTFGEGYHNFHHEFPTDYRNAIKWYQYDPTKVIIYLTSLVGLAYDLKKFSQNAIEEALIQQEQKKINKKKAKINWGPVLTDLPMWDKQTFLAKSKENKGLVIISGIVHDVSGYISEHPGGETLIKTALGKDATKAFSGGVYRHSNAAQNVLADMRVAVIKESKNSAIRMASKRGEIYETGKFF
Procedure, shortened: (§1)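 OD600 growth read-out. ole1Δ yeast, pdr1Δ pdr3Δ, with Ole1/SCD1/SCD5 on a plasmid; SX-Ura media throughout; 2× cell density 0.02 in CSM-Galactose; DMSO compound dilutions; humidified 30° C.; Ole1 stopped at 24 h, SCD1/SCD5 at 40 h.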

SCD1 = target: T2, SCD1 (Homo sapiens, UniProt O00767); assay: Growth inhibition of humanized yeast strain expressing SCD1 as sole desaturase; conditions: humanized yeast strain expressing SCD1
T2 construct: host or cells: S. cerevisiae ole1Δ strain (W303 pdr1Δ pdr3Δ background), plasmid pRS316 with TDH3 promoter and CYC1 terminator
T2 sequence (O00767 1-359): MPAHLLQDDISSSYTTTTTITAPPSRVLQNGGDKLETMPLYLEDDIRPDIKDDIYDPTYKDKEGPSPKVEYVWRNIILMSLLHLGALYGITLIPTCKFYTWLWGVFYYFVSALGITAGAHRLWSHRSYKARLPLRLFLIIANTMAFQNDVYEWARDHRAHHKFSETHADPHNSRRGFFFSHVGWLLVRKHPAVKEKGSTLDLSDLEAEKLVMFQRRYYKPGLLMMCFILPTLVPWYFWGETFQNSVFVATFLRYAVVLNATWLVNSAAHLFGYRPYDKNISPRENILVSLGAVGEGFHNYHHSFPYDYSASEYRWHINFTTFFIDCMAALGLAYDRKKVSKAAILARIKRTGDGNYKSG
Procedure, shortened: as §1

SCD5 = target: T3, SCD5 (Homo sapiens, UniProt Q86SK9); assay: Growth inhibition of humanized yeast strain expressing SCD5 as sole desaturase; conditions: humanized yeast strain expressing SCD5
T3 construct: host or cells: S. cerevisiae ole1Δ strain (W303 pdr1Δ pdr3Δ background), plasmid pRS316 with TDH3 promoter and CYC1 terminator
T3 sequence (Q86SK9 1-330): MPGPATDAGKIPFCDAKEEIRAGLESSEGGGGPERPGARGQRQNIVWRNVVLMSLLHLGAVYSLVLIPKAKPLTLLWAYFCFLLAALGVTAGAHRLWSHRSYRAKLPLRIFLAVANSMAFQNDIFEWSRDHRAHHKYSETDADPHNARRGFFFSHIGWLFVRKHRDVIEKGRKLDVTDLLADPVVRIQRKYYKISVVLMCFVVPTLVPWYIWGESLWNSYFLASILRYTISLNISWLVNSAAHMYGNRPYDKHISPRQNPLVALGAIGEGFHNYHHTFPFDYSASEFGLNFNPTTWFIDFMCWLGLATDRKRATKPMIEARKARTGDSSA
Procedure, shortened: as §1

SMILES | IC50 (Ole1) [µM] | OLE1 % Max Inhibition (Ole1) | SCD1 % Max Inhibition (SCD1) | IC50 (SCD5) [µM] | SCD5 % Max Inhibition (SCD5) | IC50 (SCD1)
CCc1c2ccc(-c3noc(C4CCN(C(=O)CNC(=O)c5ccccc5)CC4)n3)cc2nn1C [Compound 321] | > 45 | 14.0% | 71.6% | > 45 | 74.1% | 
COc1cc(OC)cc(-c2noc(C3CCN(C(=O)CNC(=O)c4ccccc4)CC3)n2)c1 [Compound 187] | > 45 | 97.42% | 72.13% | > 45 | 2.91% | > 45 µM
O=C(c1ccccc1)N1CCC(c2nc(N3CC4(COC4)C3)no2)CC1 [Compound 334] | > 45 | 84.4% | 49.3% | > 45 | 66.7% | 
Cc1nn(C)c2cc(-c3noc(C4CCN(C(=O)[C@H]5CC(=O)N(c6ccccc6)C5)CC4(F)F)n3)ccc12 (stereo partly shown) [Compound 241] | > 45 | 6.15% | 91.61% | > 45 | 16.97% | > 45 µM
CCOc1ccc(-c2noc(C3CCN(C(=O)C4CN(c5ccccc5)C(=O)CO4)CC3)n2)cc1OC (stereo not shown) [Compound 235] | > 45 | 84.04% | 74.46% | > 45 | 87.47% | > 45 µM
Cc1nn(C)c2cc(-c3nc(C4CCN(C(=O)OC(C)(C)C)CC4)no3)ccc12 [Compound 319] | > 45 | 74.25% and 63.83% and 86.3% and 84.75% | 97.10% and 89.16% and 81.7% and 75.42% | > 45 |  | ≥ 45 µM
Cc1ccc(N2C[C@@H](C(=O)N3CCC(c4nc(-c5ccc6c(C)nn(C)c6c5)no4)CC3)CC2=O)nc1 [Compound 302] | > 45 | 6.7% and 5.26% | 71.1% and 50.17% | > 45 | 9.4% and 10.64% | 36.1 µM and ≥ 45 µM
O=C(C1CC(=O)N(c2cccc(Cl)c2)C1)N1CCC(c2nc(N3CCOCC3)no2)CC1 (stereo not shown) [Compound 323] | > 45 | 89.1% | 76.1% | > 45 | 73.5% | > 45 µM
CCN1C(=O)COc2ccc(-c3nc(C4(c5ccc(OC)cc5)CC4)no3)cc21 [Compound 158] | > 45 | 89.93% | 78.34% | > 45 | 91.96% | > 45 µM
Cc1nn(C)c2cc(-c3noc(C4CCN(C(=O)CC5CC5)CC4)n3)ccc12 [Compound 264] | > 45 | 15.52% | 56.37% | > 45 | 7.97% | 40.8 µM
Cc1nn(C)c2cc(-c3noc(C4CCN(C(=O)C5CC(=O)N(c6ccc(F)cn6)C5)CC4)n3)ccc12 (stereo not shown) [Compound 275] | > 45 | 11.24% | 76.51% | > 45 | 78.05% | > 45 µM
O=C(C1CC(=O)N(c2ccccc2)C1)N1CCC(c2nc(N3CC4(COC4)C3)no2)CC1 (stereo not shown) [Compound 231] | > 45 | 29.53% | 80.00% | > 45 | 3.11% | > 45 µM
COc1cccc(-c2noc(C3CC(=O)N(c4ccc(C)c(C)c4)C3)n2)c1 (stereo not shown) [Compound 489] | > 45 | 94.30% | 68.84% | 41.1 | 61.11% | 
Cc1nn(C)c2cc(-c3noc(N4CCN(C(=O)[C@H]5CC(=O)N(c6ccccc6)C5)CC4)n3)cnc12 [Compound 246] | > 45 | 13.06% | 77.22% | > 45 | 66.03% | 
